Test results published in the NIST ThermoML archive (doi:10.1021/je049534w).
± gives the expanded uncertainty stated by the source.

Details: Liquid; for speed of sound: Linear variable-path acoustic interferometer

SMILES: CCCCn1cc[n+](C)c1.F[B-](F)(F)F [1-butyl-3-methylimidazolium tetrafluoroborate]
- mass density (313.01 K, 10180 kPa): 1198.82 ± 1.5 kg/m3
- mass density (313.01 K, 15650 kPa): 1201.26 ± 1.6 kg/m3
- mass density (313.01 K, 21300 kPa): 1203.75 ± 1.7 kg/m3
- mass density (313.01 K, 24580 kPa): 1205.19 ± 1.7 kg/m3
- mass density (313.01 K, 30110 kPa): 1207.62 ± 1.9 kg/m3
- mass density (313.01 K, 35390 kPa): 1209.88 ± 2 kg/m3
- mass density (313.01 K, 44700 kPa): 1213.84 ± 2.3 kg/m3
- mass density (313.01 K, 49720 kPa): 1215.92 ± 2.5 kg/m3
- mass density (313.01 K, 54430 kPa): 1217.91 ± 2.6 kg/m3
- mass density (313.01 K, 59450 kPa): 1219.95 ± 2.8 kg/m3
- speed of sound (313.15 K, 100 kPa): 1525.2 ± 6.6 m/s
- speed of sound (313.15 K, 5091 kPa): 1539.3 ± 6.6 m/s
- speed of sound (313.15 K, 10185 kPa): 1554 ± 6.7 m/s
- speed of sound (313.15 K, 20070 kPa): 1581 ± 6.8 m/s
- speed of sound (313.15 K, 59719 kPa): 1679.3 ± 7.2 m/s
- speed of sound (313.15 K, 99014 kPa): 1765.8 ± 7.5 m/s
- speed of sound (313.15 K, 123975 kPa): 1816.6 ± 7.7 m/s
- speed of sound (313.15 K, 151204 kPa): 1870 ± 7.9 m/s
- mass density (322.85 K, 100 kPa): 1187.85 ± 1.4 kg/m3
- mass density (322.85 K, 3730 kPa): 1189.5 ± 1.4 kg/m3
- mass density (322.85 K, 6220 kPa): 1190.68 ± 1.4 kg/m3
- mass density (322.85 K, 10020 kPa): 1192.47 ± 1.5 kg/m3
- mass density (322.85 K, 14870 kPa): 1194.68 ± 1.5 kg/m3
- mass density (322.85 K, 20450 kPa): 1197.2 ± 1.6 kg/m3
- mass density (322.85 K, 25400 kPa): 1199.38 ± 1.7 kg/m3
- mass density (322.85 K, 31090 kPa): 1201.87 ± 1.9 kg/m3
- mass density (322.85 K, 34850 kPa): 1203.51 ± 2 kg/m3
- mass density (322.85 K, 41130 kPa): 1206.23 ± 2.1 kg/m3
- mass density (322.85 K, 44880 kPa): 1207.85 ± 2.3 kg/m3
- mass density (322.85 K, 49830 kPa): 1209.95 ± 2.4 kg/m3
- mass density (322.85 K, 54520 kPa): 1211.91 ± 2.6 kg/m3
- mass density (322.85 K, 59920 kPa): 1214.2 ± 2.7 kg/m3
- speed of sound (323.15 K, 100 kPa): 1503.4 ± 6.5 m/s
- speed of sound (323.15 K, 4999 kPa): 1517.8 ± 6.5 m/s
- speed of sound (323.15 K, 10202 kPa): 1533.4 ± 6.6 m/s
- speed of sound (323.15 K, 20046 kPa): 1561.4 ± 6.7 m/s
- speed of sound (323.15 K, 59977 kPa): 1662.1 ± 7.1 m/s
- speed of sound (323.15 K, 99014 kPa): 1748.8 ± 7.5 m/s
- speed of sound (323.15 K, 123945 kPa): 1798.9 ± 7.7 m/s
- speed of sound (323.15 K, 151374 kPa): 1853.2 ± 7.9 m/s
- mass density (332.73 K, 100 kPa): 1181.05 ± 1.4 kg/m3
- mass density (332.73 K, 4130 kPa): 1182.92 ± 1.4 kg/m3
- mass density (332.73 K, 6350 kPa): 1183.98 ± 1.4 kg/m3
- mass density (332.73 K, 11210 kPa): 1186.3 ± 1.5 kg/m3
- mass density (332.73 K, 15220 kPa): 1188.15 ± 1.5 kg/m3
- mass density (332.73 K, 20540 kPa): 1190.55 ± 1.6 kg/m3
- mass density (332.73 K, 25280 kPa): 1192.7 ± 1.7 kg/m3
- mass density (332.73 K, 30760 kPa): 1195.16 ± 1.8 kg/m3
- mass density (332.73 K, 35080 kPa): 1197.05 ± 1.9 kg/m3
- mass density (332.73 K, 40110 kPa): 1199.23 ± 2.1 kg/m3
- mass density (332.73 K, 44860 kPa): 1201.24 ± 2.2 kg/m3
- mass density (332.73 K, 49840 kPa): 1203.35 ± 2.4 kg/m3
- mass density (332.73 K, 54760 kPa): 1205.7 ± 2.5 kg/m3
- mass density (332.73 K, 59130 kPa): 1207.2 ± 2.6 kg/m3
